# In ChEMBL document CHEMBL4507283, “Data for DCP probe BI-1935” (2021):
# Key:
# [1] = target: Serine/threonine-protein kinase haspin (Homo sapiens) (UniProt Q8TF76); details: Compound concentration 1000.0 nM
# [2] = target: Tyrosine-protein kinase Fgr (Homo sapiens) (UniProt P09769); details: Compound concentration 1000.0 nM
# [3] = target: Aurora kinase A (Homo sapiens) (UniProt O14965); details: Compound concentration 1000.0 nM
# [4] = target: Protein kinase C theta type (Homo sapiens) (UniProt Q04759); details: Compound concentration 1000.0 nM
# [5] = target: Transient receptor potential cation channel subfamily M member 6 (Homo sapiens) (UniProt Q9BX84); details: Compound concentration 1000.0 nM
# [6] = target: Mitogen-activated protein kinase kinase kinase kinase 2 (Homo sapiens) (UniProt Q12851); details: Compound concentration 1000.0 nM
# [7] = target: Serine/threonine-protein kinase SIK3 (Homo sapiens) (UniProt Q9Y2K2); details: Compound concentration 1000.0 nM
# [8] = target: Mitogen-activated protein kinase kinase kinase 20 (Homo sapiens) (UniProt Q9NYL2); details: Compound concentration 1000.0 nM
# Sequence of Mitogen-activated protein kinase kinase kinase 20 (Homo sapiens) (Q9NYL2 2-800 limits assumed): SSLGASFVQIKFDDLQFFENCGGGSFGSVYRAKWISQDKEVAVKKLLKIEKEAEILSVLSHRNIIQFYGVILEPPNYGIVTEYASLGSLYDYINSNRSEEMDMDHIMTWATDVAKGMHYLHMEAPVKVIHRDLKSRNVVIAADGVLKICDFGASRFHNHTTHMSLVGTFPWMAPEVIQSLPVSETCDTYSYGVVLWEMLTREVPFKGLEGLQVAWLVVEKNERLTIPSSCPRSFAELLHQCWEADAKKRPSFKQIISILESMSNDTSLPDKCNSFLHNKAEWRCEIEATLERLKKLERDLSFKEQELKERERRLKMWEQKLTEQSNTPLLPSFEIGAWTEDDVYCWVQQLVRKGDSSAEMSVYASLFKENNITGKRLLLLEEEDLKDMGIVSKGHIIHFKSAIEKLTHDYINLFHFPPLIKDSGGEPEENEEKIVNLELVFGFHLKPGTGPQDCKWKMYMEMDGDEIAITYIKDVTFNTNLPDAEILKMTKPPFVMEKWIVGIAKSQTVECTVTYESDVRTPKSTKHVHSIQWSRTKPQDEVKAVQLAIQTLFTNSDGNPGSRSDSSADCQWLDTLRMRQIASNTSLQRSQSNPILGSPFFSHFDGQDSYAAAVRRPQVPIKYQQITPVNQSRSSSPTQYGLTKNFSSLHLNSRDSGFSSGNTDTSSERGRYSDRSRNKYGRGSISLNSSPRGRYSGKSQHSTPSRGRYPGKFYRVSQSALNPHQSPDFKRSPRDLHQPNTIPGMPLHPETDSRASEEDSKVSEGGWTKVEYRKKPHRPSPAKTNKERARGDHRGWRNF
# [9] = target: Ephrin type-B receptor 4 (Homo sapiens) (UniProt P54760); details: Compound concentration 1000.0 nM
# [10] = target: Beta-2 adrenergic receptor (Rattus norvegicus) (UniProt P10608); assay: BETA/R Eurofins-Panlabs selectivity data (BI); details: Compound concentration 10.0 uM
# [11] = target: Bone morphogenetic protein receptor type-1B (Homo sapiens) (UniProt O00238); details: Compound concentration 1000.0 nM
# [12] = target: Cyclin-dependent kinase 3 (Homo sapiens) (UniProt Q00526); details: Compound concentration 1000.0 nM
# [13] = target: Serine/threonine-protein kinase tousled-like 2 (Homo sapiens) (UniProt Q86UE8); details: Compound concentration 1000.0 nM
# Sequence of Serine/threonine-protein kinase tousled-like 2 (Homo sapiens) (Q86UE8 whole entry, looked up): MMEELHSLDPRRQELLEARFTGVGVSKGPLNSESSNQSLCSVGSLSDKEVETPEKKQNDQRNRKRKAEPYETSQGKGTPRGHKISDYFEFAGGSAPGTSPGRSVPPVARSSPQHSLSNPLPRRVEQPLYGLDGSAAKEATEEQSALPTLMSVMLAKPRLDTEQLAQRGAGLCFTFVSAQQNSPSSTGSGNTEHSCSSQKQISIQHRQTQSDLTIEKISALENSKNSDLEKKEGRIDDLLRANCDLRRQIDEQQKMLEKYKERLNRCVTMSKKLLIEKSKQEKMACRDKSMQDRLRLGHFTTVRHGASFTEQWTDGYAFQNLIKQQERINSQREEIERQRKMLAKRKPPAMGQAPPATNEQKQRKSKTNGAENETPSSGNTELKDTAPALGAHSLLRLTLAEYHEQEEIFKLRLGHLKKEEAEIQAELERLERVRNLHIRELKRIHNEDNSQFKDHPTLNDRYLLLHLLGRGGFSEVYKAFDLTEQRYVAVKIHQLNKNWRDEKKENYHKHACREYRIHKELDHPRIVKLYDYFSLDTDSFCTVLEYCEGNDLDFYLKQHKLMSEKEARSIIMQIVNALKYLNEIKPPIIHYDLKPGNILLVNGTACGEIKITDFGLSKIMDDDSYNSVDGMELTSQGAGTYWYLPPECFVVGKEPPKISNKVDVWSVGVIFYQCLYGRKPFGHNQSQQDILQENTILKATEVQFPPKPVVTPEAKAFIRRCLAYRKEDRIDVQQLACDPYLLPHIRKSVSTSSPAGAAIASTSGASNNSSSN
# [14] = target: Serine/threonine-protein kinase STK11 (Homo sapiens) (UniProt Q15831); details: Compound concentration 1000.0 nM
# [15] = target: Phosphatidylinositol 4-kinase beta (Homo sapiens) (UniProt Q9UBF8); details: Compound concentration 1000.0 nM
# [16] = target: Cyclin-dependent kinase 16 (Homo sapiens) (UniProt Q00536); details: Compound concentration 1000.0 nM
# Sequence of Cyclin-dependent kinase 16 (Homo sapiens) (Q00536 whole entry): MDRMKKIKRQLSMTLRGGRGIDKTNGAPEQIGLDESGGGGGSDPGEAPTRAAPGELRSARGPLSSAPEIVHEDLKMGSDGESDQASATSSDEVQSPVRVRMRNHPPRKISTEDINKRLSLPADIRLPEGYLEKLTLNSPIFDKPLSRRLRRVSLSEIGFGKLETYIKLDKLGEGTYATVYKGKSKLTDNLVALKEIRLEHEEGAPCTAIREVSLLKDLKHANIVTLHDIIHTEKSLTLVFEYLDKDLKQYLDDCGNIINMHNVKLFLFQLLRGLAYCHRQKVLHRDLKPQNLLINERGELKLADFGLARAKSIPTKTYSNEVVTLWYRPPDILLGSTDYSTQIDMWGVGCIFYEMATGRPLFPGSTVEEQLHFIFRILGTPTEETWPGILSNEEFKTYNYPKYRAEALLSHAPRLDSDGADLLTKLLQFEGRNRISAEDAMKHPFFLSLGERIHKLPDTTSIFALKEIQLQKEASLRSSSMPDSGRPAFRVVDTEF
# [17] = target: Activin receptor type-2A (Homo sapiens) (UniProt P27037); details: Compound concentration 1000.0 nM
# [18] = target: Ribosomal protein S6 kinase alpha-5 (Homo sapiens) (UniProt O75582); details: Compound concentration 1000.0 nM
# [19] = target: Neprilysin (Homo sapiens) (UniProt P08473); assay: NEUTRALENDOP Eurofins-Panlabs selectivity data (BI); details: Compound concentration 10.0 uM
# Sequence of Neprilysin (Homo sapiens) (P08473 whole entry): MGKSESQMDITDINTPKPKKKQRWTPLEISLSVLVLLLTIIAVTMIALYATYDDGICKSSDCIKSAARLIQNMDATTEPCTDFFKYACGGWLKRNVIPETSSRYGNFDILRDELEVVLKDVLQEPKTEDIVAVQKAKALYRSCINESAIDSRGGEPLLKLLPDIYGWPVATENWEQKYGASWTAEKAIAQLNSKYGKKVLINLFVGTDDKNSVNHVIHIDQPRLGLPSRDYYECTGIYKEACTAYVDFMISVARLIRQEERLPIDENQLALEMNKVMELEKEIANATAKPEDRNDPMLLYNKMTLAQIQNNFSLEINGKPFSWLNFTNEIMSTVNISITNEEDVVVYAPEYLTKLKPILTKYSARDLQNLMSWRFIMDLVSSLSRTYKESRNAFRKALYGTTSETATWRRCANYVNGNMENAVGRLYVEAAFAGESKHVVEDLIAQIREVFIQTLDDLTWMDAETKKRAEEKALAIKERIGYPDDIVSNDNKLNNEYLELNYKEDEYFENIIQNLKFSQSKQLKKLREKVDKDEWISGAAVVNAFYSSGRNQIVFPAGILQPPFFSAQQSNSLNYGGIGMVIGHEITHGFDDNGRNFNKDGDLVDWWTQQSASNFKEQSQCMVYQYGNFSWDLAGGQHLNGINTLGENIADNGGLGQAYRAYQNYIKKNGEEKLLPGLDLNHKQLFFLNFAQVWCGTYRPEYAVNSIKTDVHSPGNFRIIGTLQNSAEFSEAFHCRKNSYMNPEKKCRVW
# [20] = target: NUAK family SNF1-like kinase 1 (Homo sapiens) (UniProt O60285); details: Compound concentration 1000.0 nM
# [21] = target: Ribosomal protein S6 kinase alpha-3 (Homo sapiens) (UniProt P51812); details: Compound concentration 1000.0 nM
# [22] = target: STE20-like serine/threonine-protein kinase (Homo sapiens) (UniProt Q9H2G2); details: Compound concentration 1000.0 nM
# [23] = target: Ribosomal protein S6 kinase alpha-6 (Homo sapiens) (UniProt Q9UK32); details: Compound concentration 1000.0 nM
# [24] = target: Serine/threonine-protein kinase B-raf (Homo sapiens) (UniProt P15056); details: Compound concentration 1000.0 nM
# [25] = target: D(2) dopamine receptor (Homo sapiens) (UniProt P14416); details: Compound concentration 10.0 uM
# Sequence of D(2) dopamine receptor (Homo sapiens) (P14416 whole entry): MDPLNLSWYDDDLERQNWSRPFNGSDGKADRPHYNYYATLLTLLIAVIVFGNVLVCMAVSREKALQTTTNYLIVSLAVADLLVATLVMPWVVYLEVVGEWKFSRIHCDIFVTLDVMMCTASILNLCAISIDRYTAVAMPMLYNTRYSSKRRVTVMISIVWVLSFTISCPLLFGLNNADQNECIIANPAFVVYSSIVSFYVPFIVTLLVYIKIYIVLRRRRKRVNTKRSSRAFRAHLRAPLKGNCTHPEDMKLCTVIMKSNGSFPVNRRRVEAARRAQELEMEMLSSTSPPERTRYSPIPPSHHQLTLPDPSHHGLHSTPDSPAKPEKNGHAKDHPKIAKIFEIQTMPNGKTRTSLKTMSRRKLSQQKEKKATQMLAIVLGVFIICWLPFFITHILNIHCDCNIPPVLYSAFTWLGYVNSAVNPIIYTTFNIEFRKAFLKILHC
# [26] = target: Serine/threonine-protein kinase 38 (Homo sapiens) (UniProt Q15208); details: Compound concentration 1000.0 nM
# [27] = target: Serine/threonine-protein kinase MRCK beta (Homo sapiens) (UniProt Q9Y5S2); details: Compound concentration 1000.0 nM
# [28] = target: Serine/threonine-protein kinase Chk2 (Homo sapiens) (UniProt O96017); details: Compound concentration 1000.0 nM
# [29] = system: Epidermal growth factor receptor (Homo sapiens), P00533 [UNDEFINED MUTATION]; details: Compound concentration 1000.0 nM
# [30] = target: Prostaglandin G/H synthase 2 (Homo sapiens) (UniProt P35354); assay: COX-2 Eurofins-Panlabs selectivity data (BI); details: Compound concentration 10.0 uM
# [31] = target: Testis-specific serine/threonine-protein kinase 1 (Homo sapiens) (UniProt Q9BXA7); details: Compound concentration 1000.0 nM
# [32] = target: Sigma non-opioid intracellular receptor 1 (Homo sapiens, UniProt Q99720); assay: GPCRScan assay: inhibition of Sigma 1; design: radioligand conc. used [nm] 4.0 – 5.0, parental cells HEKT
# [33] = target: Sodium-dependent dopamine transporter (Homo sapiens, UniProt Q01959); details: Compound concentration 10.0 uM
# [34] = target: Serine/threonine-protein kinase PAK 5 (Homo sapiens) (UniProt Q9P286); details: Compound concentration 1000.0 nM
# [35] = target: Casein kinase I isoform alpha (Homo sapiens) (UniProt P48729); details: Compound concentration 1000.0 nM
# [36] = target: Sigma intracellular receptor 2 (Homo sapiens) (UniProt Q5BJF2); details: Compound concentration 10.0 uM
# Sequence of Sigma intracellular receptor 2 (Homo sapiens) (Q5BJF2 whole entry): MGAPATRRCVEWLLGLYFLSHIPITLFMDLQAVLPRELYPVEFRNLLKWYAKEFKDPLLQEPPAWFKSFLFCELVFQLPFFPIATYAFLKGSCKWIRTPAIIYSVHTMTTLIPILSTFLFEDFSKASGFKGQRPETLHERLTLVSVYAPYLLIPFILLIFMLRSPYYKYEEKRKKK
# [37] = target: Serine/threonine-protein kinase TBK1 (Homo sapiens) (UniProt Q9UHD2); details: Compound concentration 1000.0 nM
# [38] = target: Serine/threonine-protein kinase D3 (Homo sapiens) (UniProt O94806); details: Compound concentration 1000.0 nM
# [39] = system: Epidermal growth factor receptor (Homo sapiens), P00533 [UNDEFINED MUTATION]; details: Compound concentration 1000.0 nM; remark: listed apart in the source
# [40] = target: Phosphatidylinositol 4,5-bisphosphate 3-kinase catalytic subunit gamma isoform (Homo sapiens) (UniProt P48736); details: Compound concentration 1000.0 nM
# [41] = target: Serine/threonine-protein kinase LATS2 (Homo sapiens) (UniProt Q9NRM7); details: Compound concentration 1000.0 nM
# Sequence of Serine/threonine-protein kinase LATS2 (Homo sapiens) (Q9NRM7 whole entry): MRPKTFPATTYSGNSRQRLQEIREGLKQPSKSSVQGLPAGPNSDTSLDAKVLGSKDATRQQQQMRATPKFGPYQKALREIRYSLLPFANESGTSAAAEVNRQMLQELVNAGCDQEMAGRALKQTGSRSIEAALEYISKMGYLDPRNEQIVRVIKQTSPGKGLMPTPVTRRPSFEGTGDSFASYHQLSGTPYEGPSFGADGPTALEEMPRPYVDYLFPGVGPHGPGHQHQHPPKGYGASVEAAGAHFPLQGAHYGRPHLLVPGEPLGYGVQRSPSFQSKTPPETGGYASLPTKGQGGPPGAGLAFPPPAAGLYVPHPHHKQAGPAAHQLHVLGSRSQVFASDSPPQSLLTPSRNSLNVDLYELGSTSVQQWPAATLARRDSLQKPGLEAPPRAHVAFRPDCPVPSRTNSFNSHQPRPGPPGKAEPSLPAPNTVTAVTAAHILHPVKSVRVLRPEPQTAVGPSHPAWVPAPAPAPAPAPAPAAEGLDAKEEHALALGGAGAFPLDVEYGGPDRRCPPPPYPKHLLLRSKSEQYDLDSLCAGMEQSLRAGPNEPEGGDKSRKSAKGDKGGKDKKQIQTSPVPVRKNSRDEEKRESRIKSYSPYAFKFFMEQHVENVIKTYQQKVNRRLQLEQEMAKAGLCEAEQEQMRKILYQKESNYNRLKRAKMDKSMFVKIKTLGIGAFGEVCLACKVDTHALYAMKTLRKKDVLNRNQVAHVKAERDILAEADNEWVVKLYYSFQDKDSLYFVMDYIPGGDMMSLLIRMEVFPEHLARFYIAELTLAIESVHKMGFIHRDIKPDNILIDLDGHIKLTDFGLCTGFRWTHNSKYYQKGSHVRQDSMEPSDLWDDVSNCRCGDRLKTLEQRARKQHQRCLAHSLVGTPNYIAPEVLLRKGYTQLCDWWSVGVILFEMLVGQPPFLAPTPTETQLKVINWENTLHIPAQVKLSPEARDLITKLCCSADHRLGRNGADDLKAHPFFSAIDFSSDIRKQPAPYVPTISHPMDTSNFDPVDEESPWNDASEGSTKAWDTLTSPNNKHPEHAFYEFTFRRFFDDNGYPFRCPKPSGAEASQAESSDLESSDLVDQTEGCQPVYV
# [42] = target: Prostaglandin G/H synthase 1 (Homo sapiens) (UniProt P23219); assay: COX-1 Eurofins-Panlabs selectivity data (BI); details: Compound concentration 10.0 uM
# [43] = target: Casein kinase I isoform alpha-like (Homo sapiens) (UniProt Q8N752); details: Compound concentration 1000.0 nM
# [44] = target: Activin receptor type-1-like (Homo sapiens) (UniProt P37023); details: Compound concentration 1000.0 nM
# [45] = target: Serine/threonine-protein kinase TAO3 (Homo sapiens) (UniProt Q9H2K8); details: Compound concentration 1000.0 nM
# [46] = system: Epidermal growth factor receptor (Homo sapiens), P00533 [T790M]; details: Compound concentration 1000.0 nM
# Sequence of Aurora kinase A (Homo sapiens) (O14965 whole entry): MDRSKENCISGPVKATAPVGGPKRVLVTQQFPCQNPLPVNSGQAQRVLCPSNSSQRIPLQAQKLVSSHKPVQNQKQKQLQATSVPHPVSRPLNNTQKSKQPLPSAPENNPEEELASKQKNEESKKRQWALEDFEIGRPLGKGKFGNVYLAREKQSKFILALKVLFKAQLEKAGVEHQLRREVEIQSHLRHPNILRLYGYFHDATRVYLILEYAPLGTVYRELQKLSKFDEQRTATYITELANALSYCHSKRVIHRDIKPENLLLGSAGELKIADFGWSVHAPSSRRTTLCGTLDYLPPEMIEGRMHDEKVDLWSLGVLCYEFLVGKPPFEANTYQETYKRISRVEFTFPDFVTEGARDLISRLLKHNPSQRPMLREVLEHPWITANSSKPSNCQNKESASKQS
structure (smiles),measurement,setting,value
CCOCCn1cc(C(=O)Nc2ccc(-n3nc(-c4cccnc4)cc3C(F)(F)F)cn2)ccc1=O [BI 1935],residual activity,[1],100%
same,residual activity,[2],100%
same,residual activity,[3],85%
same,residual activity,[4],73%
same,residual activity,[5],73%
same,residual activity,[6],76%
same,residual activity,[7],92%
same,residual activity,[8],73%
same,residual activity,[9],100%
same,residual activity,[10],98%
same,residual activity,[11],71%
same,residual activity,[12],100%
same,residual activity,[13],100%
same,residual activity,[14],89%
same,residual activity,[15],100%
same,residual activity,[16],98%
same,residual activity,[17],100%
same,residual activity,[18],100%
same,residual activity,[19],104%
same,residual activity,[20],100%
same,residual activity,[21],87%
same,residual activity,[22],100%
same,residual activity,[23],81%
same,residual activity,[24],95%
same,inhibition,[25],-5.62%
same,residual activity,[26],91%
same,residual activity,[27],89%
same,residual activity,[28],0%
same,residual activity,[29],96%
same,residual activity,[30],108%
same,residual activity,[31],100%
same,Ki,[32],6.28 µM
same,inhibition,[33],82.1%
same,residual activity,[34],98%
same,residual activity,[35],74%
same,inhibition,[36],-2.98%
same,residual activity,[37],76%
same,residual activity,[38],81%
same,residual activity,[39],98%
same,residual activity,[40],100%
same,residual activity,[41],65%
same,residual activity,[42],163%
same,residual activity,[43],100%
same,residual activity,[44],100%
same,residual activity,[45],66%
same,residual activity,[46],100%
